These results are taken from US7235548B2, “Compounds and their use as positive AMPA receptor modulators” (NeuroSearch A/S, priority 1998, dated 2007).

The assay deals with AMPA receptor. The experiment in a line: Voltage clamp (whole cell patch clamp), current induced by AMPA in cultured mouse neocortical neurons. Type of assay: cell-based. The settings on record: for reversibility of the potentiation: after wash out of the compound; for potentiation of the current induced by application of 30 μM AMPA: holding voltage −60 mV. As to the method:
Experiments were performed in voltage clamp using conventional whole cell patch clamp methods (Hamill et al., 1981), essentially as described previously (Mathiesen et al., 1998). The following salt solutions were used (mM): NaCl (140), KCl (4), CaCl2 (2), MgCl2 (1), Sucrose (30), Tetrodotoxin (0.0003), Bicuculline Methiodide (0.005) and HEPES (10, pH 7.4). Intracellular solution (mM): CsCl (120), CsF (20), MgCl2 (2), EGTA (10), HEPES (10, pH=7.2).
Mouse neocortical neurons were cultured essentially as described by Drejer et al. (1987). Briefly, the forebrains from embryonic (E17) NMRI mice were removed under sterile conditions. The tissue was chopped in 0.4 mm cubes and the triturated with trypsin (12.5 μg/ml) and DNAse (2.5 μg/ml), 15 min, 37° C. The cells were suspended at a concentration of 1×10^6 cells/ml in a slightly modified DMEM which contained horse serum (10% (v/v)), penicillin (333 U/ml), paraaminobenzoic acid (1 mg/ml), L-glutamine (0.5 mM), insulin (0.08 U/ml) and KCl (23.8 mM). The cell suspension was subsequently inoculated into poly-L-lysine coated 35 mm Petri dishes (2 ml/dish). Glass coverslips (3.5 mm) were placed in the dishes before coating. After 24 hr in culture, the medium was replaced by freshly made medium containing 1% N2 supplement instead of serum.
The cells were kept in culture for 7–14 days at 37° C. (5% CO2/95% O2) before experiments were carried out.
Electronics, programs and data acquisition: The amplifier used was the EPC-9 (HEKA-electronics, Lambrect, Germany) run by a Power Macintosh G3 computer via an ITC-16 interface. Experimental conditions were set with the Pulse-software accompanying the amplifier. Data were low pass filtered and sampled directly to hard-disk at a rate of 3 times the cut-off frequency.
Pipettes and electrodes: Pipettes were pulled from borosilicate glass (Modulohm, Copenhagen, Denmark) using a horizontal electrode puller (Zeitz-Instrumente, Augsburg, Germany). The pipette resistances were 1.7–2.4 MW in the salt solutions used in these experiments. The pipette electrode was a chloridized silver wire, and the reference was a silverchloride pellet electrode (In Vivo Metric, Healdsburg, USA) fixed to the experimental chamber. The electrodes were zeroed with the open pipette in the bath just prior to sealing.
Experimental procedure: Coverslips were transferred to a […] experimental chamber mounted on the stage of an inverted microscope (IMT-2, Olympus) supplied with Nomarski optics. The neurons were continuously superfused with extracellular saline at a rate of 2.5 ml/min. After giga-seal formation (1–5 GW, success-rate≈90%) the whole cell configuration was attained by suction.
The cells were held at a holding voltage of −60 mV and at the start of each experiment the current was continuously measured for at least 30 sec to ensure a stable leak current. AMPA-containing solutions were delivered to the chamber through a custom-made gravity-driven flowpipe, the tip of which was placed approximately 50 μm from the cell. Application was triggered when the tubing connected to the flow pipe was compressed by a valve controlled by the Pulse-software. AMPA (30 μM) was applied for 1 sec every 45 sec. After obtainment of responses of a repeatable amplitude the compound to be tested was included in both the chamber and in the AMPA-containing solution. The compound was present until responses of a new repeatable was obtained.
The sample interval in all experiments was 310 μsec.
All experiments were performed at room temperature (20–25° C.).

As for `Cc1cc2c(cc1S(=O)(=O)N1CCCCC1)S(=O)(=O)NC(C1CCCC1)N2` (centres unmarked) [Compound 114, 3-Cyclopentyl-6-methyl-7-piperidinosulfonyl-1,2,3,4-tetrahydro-1,2,4-benzothia-diazine-1,1-dioxide], the “reversibility of the potentiation” value is “reversible”. Further, the “concentration dependence of the effect” value (FIG. 8) is listed as “concentration-dependent”. Besides, the “potentiation of the current induced by application of 30 μM AMPA” value (from here on “potentiation of the current induced”) (compound 3 μM) is given as “potentiated”.

Take `Cc1cc2c(cc1S(=O)(=O)N1CCOCC1)S(=O)(=O)NC(C1CCCCC1)N2` (centres unmarked) [Compound 115, 3-Cyclohexyl-6-methyl-7-morpholinosulfonyl-1,2,3,4-tetrahydro-1,2,4-benzothiadiazine-1,1-dioxide]: the “reversibility of the potentiation” value is “reversible”. Besides, the “potentiation of the current induced” value (compound 10 μM) was “potentiated”.

Take `O=S1(=O)NC(C2CCCCC2)Nc2ccc(S(=O)(=O)N3CCOCC3)cc21` (centres unmarked) [Compound 63, 3-Cyclohexyl-7-morpholinosulfonyl-1,2,3,4-tetrahydro-1,2,4-benzothiadiazine-1,1-dioxide]: the “reversibility of the potentiation” value is recorded as “reversible”. For the same molecule, under “compound 3 μM”, the “persistence of the effect after wash out” value is given as “persits for several minutes after wash out” and the “potentiation of the current induced” value is “potentiated”.
